Reference: PubChem BioAssay (NCI)
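Test compounds were applied to cells in 96-well plates for 48 hours at 5 doses. TGI: total growth inhibition.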

Key:
Experiment in all cases: inhibition of tumour cell growth, NCI panel, 48 h
[1] = test system: SK-MEL-5 melanoma
[2] = test system: XF 498 CNS
[3] = test system: HCC-2998 colon
[4] = test system: HCT-116 colon
[5] = test system: DMS 114 small cell lung
[6] = test system: UACC-257 melanoma
[7] = test system: OVCAR-3 ovarian
[8] = test system: TK-10 renal
[9] = test system: CCRF-CEM leukemia
[10] = test system: SF-295 CNS
[11] = test system: COLO 205 colon
[12] = test system: RXF 393 renal
[13] = test system: DLD-1 colon
[14] = test system: RXF-631 renal
[15] = test system: RPMI-8226 leukemia
[16] = test system: SNB-75 CNS
[17] = test system: UO-31 renal
[18] = test system: OVCAR-4 ovarian
[19] = test system: A498 renal
[20] = test system: SF-268 CNS
[21] = test system: M19-MEL melanoma
[22] = test system: EKVX NSCLC
[23] = test system: U251 CNS
[24] = test system: SK-MEL-28 melanoma
[25] = test system: OVCAR-8 ovarian
[26] = test system: LOX IMVI melanoma
[27] = test system: HOP-62 NSCLC
[28] = test system: IGROV1 ovarian
[29] = test system: K-562 leukemia
[30] = test system: ACHN renal
[31] = test system: HL-60(TB) leukemia
[32] = test system: DMS 273 small cell lung
[33] = test system: SN12C renal
[34] = test system: SK-MEL-2 melanoma
[35] = test system: MOLT-4 leukemia
[36] = test system: M14 melanoma
[37] = test system: SNB-19 CNS
[38] = test system: A549 NSCLC
[39] = test system: HT29 colon
[40] = test system: KM20L2 colon
[41] = test system: 786-0 renal
[42] = test system: SF-539 CNS
[43] = test system: HCT-15 colon
[44] = test system: SW-620 colon
[45] = test system: NCI-H226 lung
[46] = test system: MALME-3M melanoma
[47] = test system: NCI-H23 lung
[48] = test system: SR leukemia
[49] = test system: LXFL 529 NSCLC
[50] = test system: NCI-H460 lung
[51] = test system: UACC-62 melanoma
[52] = test system: SK-OV-3 ovarian
[53] = test system: HOP-92 NSCLC
[54] = test system: CAKI-1 renal
[55] = test system: NCI-H522 lung
[56] = test system: OVCAR-5 ovarian

Measured: TGI

COC(=O)CC1NC(=O)C1C(C)(OC)OC (stereo unspecified)
not listed: [52] | [53] | [54] | [55] | [56]
> 100 µM: all other assays above

NNC(=S)NN/C=C(\C=Nc1ccccc1)[N+](=O)[O-]
not listed: [1] | [9] | [17] | [19] | [23] | [29] | [32] | [35] | [43] | [48] | [50]
> 100 µM: all other assays above
